Tests used:
[1] = system: DMN1 (normal melanocytes); test: Sulforhodamine B cell growth assay, normal cells; assay type: cell-based, human
Description: (§1) Cell Culture treatments. Cells were maintained in RPMI or DMEM (Mediatech, Herndon, Va.) containing 5% fetal bovine serum (Hyclone, Logan, Utah) and 1% Antibiotic-Antimycotic (GEBCO, Invitrogen Carlsbad, Calif.) as recommended per the American Type Culture Collection media protocol for each cell line. Cells were maintained in 5% CO2 at 37° C. in a humidified tissue culture incubator. Primary non-tumorigenic […] cell lines (DMN-1 and CMN-1), and human foreskin fibroblasts (HFF; CCF, Cleveland, Ohio) were cultured in DMEM-F12 medium supplemented with 10% FBS. Cells were confirmed as mycoplasma free.
(§2) Sulforhodamine B Cell Growth Assay. Cells were harvested with 0.5% trypsin/0.53 mM EDTA, washed with PBS and resuspended in media containing 10% FBS. Cells were plated in 96-well plates in 0.2-ml aliquots. Cells were allowed to adhere to the plate for 4 h and then NO-Cbl was added in different concentrations to the assay plate. A minimum of four were performed for each treatment. After 16 h, various chemotherapeutic agents including cytokines were added at different concentrations. Growth was monitored by the sulforhodamine B (SRB; Sigma Chemical, St. Louis, Mo.) colorimetric assay. After 36 h, the medium was removed, and the cells were fixed with 10% trichloroacetic acid and stained with SRB. Bound dye was eluted from the cells with 10 mM Tris-HCl (pH 10.5) and absorbance was measured at 570 nm using a Lab systems Multiskan RC 96-well plate reader (Lab Systems Multiscan RC, Thermo Lab Systems, Franklin, Mass.). To quantify the growth of the cells, the experimental absorbance values (Aexp) were compared with initial absorbance readings representing the starting cell numbers (Aini). To determine the starting cell number, an additional 96-well plate was seeded with cells and fixed at the beginning of the experiment. After 5 days growth, the untreated control cells and drug treated cells were fixed and stained with SRB. The absorbances derived from the initial plate and from the untreated cells at the end of the growth period (Afin) were defined as 0% and 100% growth, respectively. The percentage control growth (100%×[Aexp−Aini]/[Afin−Aini]) is expressed as a percentage of untreated controls.
(§3) Anti-tumor effects of NO-Cbl, Apo2L/TRAIL, and the combination iii vitro. NO-Cbl enhances the anti-cellular effects of Apo2L/TRAIL against malignant Apo2L/TRAIL-resistant cell lines. First the antiproliferative effects of three melanoma lines A375, WM9, and WM3211 (previously reported to be resistant to Apo2L/TRAIL) were measured. Although Apo2L/TRAIL was used as the chemotherapeutic agents, a wide range of anti-cancer drugs and techniques would be enhanced by the NO based cobalamin compounds due to their effective inhibition of the cell survival mechanism. Such other chemotherapeutic agents are tested in the following examples. […] The SRB antiproliferative assay, used by the National Cancer Institute (NCI) to evaluate new chemotherapeutic agents was used herein. Median effect analysis was used to analyze drug interactions between NO-Cbl and Apo2L/TRAIL. Cells were pre-treated with NO-Cbl for 16 h followed by Apo2L/TRAIL for 24 h.
(§4) The effects of nitrosylcobalamin (NO-Cbl), Apo2L/TRAIL, and the combination on the proliferation of melanoma cell lines A375, WM9, and WM3211 and normal cell lines CMN1, DMN1, and fibroblasts were observed. Cells were treated with NO-Cbl, Apo2L/TRAIL, or pre-treated with NO-Cbl followed by Apo2L/TRAIL for three days, and growth was measured by the colorimetric sulforhodamine B assay. Data points were generated to represent the mean of four replicates±standard error of the mean (SEM). Synergy between NO-Cbl and Apo2L/TRAIL was determined by median effect analysis, (combination index >1 indicates antagonism, =1 indicates additivity, and <1 indicates synergy). The combination index is represented in FIG. 1 and as the combination index observed at the specified concentrations. […]

[2] = system: normal fibroblasts; test: Sulforhodamine B cell growth assay, normal cells; assay type: cell-based, human
Description: as §1, §2, §3, §4

[3] = system: CMN1 (normal melanocytes); test: Sulforhodamine B cell growth assay, normal cells; assay type: cell-based, human
Description: as §1, §2, §3, §4

[4] = system: Apo2L/TRAIL, DR4 and DR5 mRNAs, caspase-8 enzymatic activity; test: Expression of Apo2L/TRAIL pathway components after NO-Cbl; assay type: cell-based; details: treatment with NO-Cbl
Text: This endogenous production further sensitized cells to administration of exogenous Apo2L/TRAIL. […] The anti-tumor effects of IFN-β and NO-Cbl are synergistic in vitro and in vivo. Treatment with NO-Cbl increased the expression of Apo2L/TRAIL, DR4 and DR5 mRNAs, and caspase-8 enzymatic activity, indicating activation of the extrinsic apoptotic pathway.

[5] = system: NF-κB-luciferase reporter in A375 cells; test: Dual luciferase NF-κB reporter assay; assay type: cell-based, human
Description: Dual Luciferase NF-κB Reporter Assay. Please see FIG. 6. The NP-κB-luciferase (NF-κB-luc) reporter plasmid, containing a 2×NF-κB response element fused to the luciferase, has been previously characterized. Renilla luciferase (pRL-TK, Promega, Madison, Wis.) vector was used to normalize for transfection efficiency. A375 cells were transfected with 20 μg NF-κB-luc and 10 μg PRL-TK using Lipofectamine plus (Gibco BRL/Life Technologies, Invitrogen Carlsbad, Calif.). After transfection cells were allowed to recover overnight and were plated in 6 well plates. […] Cells were then harvested in 1× passive lysis buffer and luciferase activity was measured according to the manufacturer's protocol (Promega, Madison, Wis.) using a Wallac 1420 multilabel counter (Perkin Elmer, Gaithersburg, Md.). The fold induction of NF-κB-luciferase for each treatment was based on untreated values normalized to the fold induction of pRL-TK reporter values. The assays were performed in triplicate.
Transient transfection assays were performed to assess NF-κB transcriptional activity. A375 cells were co-transfected with a NF-κB-luciferase reporter (NF-κB-luc) and Renilla luciferase (to assess transfection efficiency). Cells were pre-treated with NO-Cbl (100 μM) for 16 h followed by treatment with Apo2L/TRAIL (100 ng/ml) or TNF-α (10 ng/ml) for 4 hours.

nitrosylcobalamin [NO-Cbl] was tested, and the “antiproliferative effect on normal cells” value [1] was “completely resistant”, the “antiproliferative effect on normal cells” value [2] was “completely resistant” and the “antiproliferative effect on normal cells” value [3] was “completely resistant”. For the same substance, the “expression of Apo2L/TRAIL, DR4 and DR5 mRNAs, and caspase-8 enzymatic activity” value [4] was “increased”, the “inhibition of NF-κB activity in response to Apo2L/TRAIL” value ([5]; NO-Cbl 100 μM 16 h followed by Apo2L/TRAIL 100 ng/ml 4 hours) was 34% and the “inhibition of NF-κB activity in response to TNF-α” value ([5]; NO-Cbl 100 μM 16 h followed by TNF-α 10 ng/ml 4 hours) was 51%.
